{"source": "paper PMC7674337", "about": "“Phylogenetic analysis of plant multi-domain SEC14-like phosphatidylinositol transfer proteins and structure–function properties of PATELLIN2” (Plant Molecular Biology, 2020)", "target": "T1, PATL2 (PATELLIN2; StrepII-PATL2) (Arabidopsis thaliana, UniProt Q56ZI2)", "T1 construct": "full-length CDS from Col-0 root cDNA; StrepII-tagged (pET-52b(+)), E. coli BL21(DE3) pLysS; Strep-Tactin purified", "T1 sequence (Q56ZI2 2-683)": "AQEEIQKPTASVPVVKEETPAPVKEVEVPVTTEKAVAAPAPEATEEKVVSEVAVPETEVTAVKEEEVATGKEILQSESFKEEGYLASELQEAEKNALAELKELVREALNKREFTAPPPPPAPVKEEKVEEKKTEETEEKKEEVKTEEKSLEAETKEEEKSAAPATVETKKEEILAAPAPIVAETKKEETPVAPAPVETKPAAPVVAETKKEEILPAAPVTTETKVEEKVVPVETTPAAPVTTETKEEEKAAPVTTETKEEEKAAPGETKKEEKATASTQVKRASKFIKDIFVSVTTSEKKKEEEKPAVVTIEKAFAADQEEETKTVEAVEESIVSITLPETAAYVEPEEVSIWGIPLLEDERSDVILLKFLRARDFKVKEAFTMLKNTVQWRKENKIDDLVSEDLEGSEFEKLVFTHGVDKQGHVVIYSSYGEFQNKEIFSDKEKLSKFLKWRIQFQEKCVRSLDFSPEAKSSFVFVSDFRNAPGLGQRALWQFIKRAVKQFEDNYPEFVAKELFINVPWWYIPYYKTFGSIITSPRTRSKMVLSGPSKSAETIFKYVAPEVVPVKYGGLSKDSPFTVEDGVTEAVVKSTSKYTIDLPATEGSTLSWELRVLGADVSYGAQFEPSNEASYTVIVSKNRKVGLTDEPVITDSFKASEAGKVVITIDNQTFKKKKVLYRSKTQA", "experiment": "liposome co-sedimentation, immunoblot", "format": "binding", "details": "PC/PE liposomes with 7% phosphoinositide; 25 mM Tris-HCl pH 7.5, room temperature"}
{"smiles": "CCCCCCCC/C=C\\CCCCCCCC(=O)OC[C@H](COP(=O)(O)O[C@@H]1[C@H](O)[C@H](O)[C@@H](O)[C@H](O)[C@H]1O)OC(=O)CCCCCCC/C=C\\CCCCCCCC", "note": "[PI, 1,2-dioleoyl-sn-glycero-3-phospho-(1′-myo-inositol)]", "values": [{"measurement": "liposome co-sedimentation, immunoblot", "result": "a low amount of PATL2 protein was found in the liposome membrane fraction"}]}
